Experiments:
[1] = tested on: microbes that cause respiratory disease in animals; assay: Activity against the microbes that cause respiratory disease in animals (statement); format: cell-based
[2] = Injection site reactions in cattle; format: in vivo; details: injectable pharmaceutical compositions
Method: Cattle injected with injectable pharmaceutical compositions containing Compound (A) were evaluated for reactions at the injection site. These injection site reactions were compared to the injection site reactions of cattle injected with injectable pharmaceutical compositions containing Compounds (B) and (C). The compounds were formulated as aqueous solution injectable pharmaceutical compositions or as suspension injectable pharmaceutical compositions as indicated below. These formulations were prepared as described in Examples 1 and 2. Compound (A) was formulated as both an aqueous solution using the free base form of the compound and as a suspense using the dihydrochloride salt of the compound. The composition of the aqueous solution injectable pharmaceutical composition was 15% w/v of Compound A, 15% w/v Poloxamer […], 6% w/v Benzyl Alcohol, 7% w/v Citric Acid, and QS Water. The composition of the suspension injectable pharmaceutical composition was 15% w/v Compound A (17.5% w/v HCl salt of Compound A), 0.1% w/v Kolliphor HS 15 and QS Miglyol 812. Compound A was administered to the animals in a dose of 10 mg/kilogram of body weight. Compound (B) was formulated as both an aqueous solution using the free base form of the compound and as a suspense using the dihydrochloride salt of the compound. The composition of the aqueous solution injectable pharmaceutical composition was 15% w/v of Compound B, 15% w/v Poloxamer […], 6% w/v Benzyl Alcohol, 7% w/v Citric Acid, and QS Water. The composition of the suspension injectable pharmaceutical composition was 15% w/v Compound B (17.5% w/v HCl salt of Compound B), 0.1% w/v Kolliphor HS 15 and QS Miglyol 812. Compound A was administered to the animals in a dose of 10 mg/kilogram of body weight. Compound (C) was formulated as both an aqueous solution using the free base form of the compound. The composition of the aqueous solution injectable pharmaceutical composition was 10% w/v of Compound C, 15% w/v Poloxamer […], 6% w/v Benzyl Alcohol, 7% w/v Citric Acid, and QS Water. Compound A was administered to the animals in a dose of 10 mg/kilogram of body weight. Injection sites were examined clinically by a trained person, Size of the swelling is measured with a ruler to the closest 0.5 cm horizontally, vertical and depth. These three measured values were multiplied to an estimation of the volume of the square box surrounding the observed swelling.

Compound	Activity against the microbes that cause respiratory disease in animals [1]	Injection site reactions, overall assessment [2]	Injection site reactions, overall assessment ([2]; listed as Compound (B))	Injection site reactions, overall assessment ([2]; listed as Compound (C))
CC(C)(N)[C@H](NC(=O)c1ccc(C#Cc2ccc(CNC3CC3)cc2)cc1)C(=O)NO [Compound B]	active against the microbes that cause respiratory disease in animals	not resolved during the duration of the study	unacceptable injection site reactions	–
CC(C)(N)[C@H](NC(=O)c1ccc(C#Cc2ccc(CNCC(F)(F)F)cc2)cc1)C(=O)NO [Compound C]	active against the microbes that cause respiratory disease in animals	not resolved during the duration of the study	–	unacceptable injection site reactions

Source: patent publication US20250057790A1, “AN INJECTABLE PHARMACEUTICAL COMPOSITION FOR THE TREATMENT OF RESPIRATORY DISEASES IN ANIMALS” (priority 2021, published 2025)
